Reference: patent US7998681B2, “Diagnosis and therapy of antibody-mediated inflammatory auto-immune disorders” (Los Angeles Biomedical Research Institute at Harbor-UCLA …, priority 2000, dated 2011)

Columns and labels:
[1] = tested on: fibroblasts from individuals without known thyroid disease; assay: T lymphocyte migration (chemotaxis) assay of conditioned medium from treated fibroblasts, normal donors; format: cell-based, human; conditions: IgG 100 ng/ml, IL-1β 10 ng/ml, 24 hours
Procedure: The general migration assay is described in detail in Sciaky, D., et al., “Cultured human fibroblasts express constitutive IL-16 mRNA: Cytokine induction of active IL-16 protein synthesis through a caspase-3-dependent mechanism,” J. Immunol. 164(7):3806-14 (2000), hereby incorporated fully by reference. Briefly, fibroblasts from TAO and normal orbital tissue were seeded in 24-well arrays and grown to confluence. Monolayers were shifted containing 1% FBS to which nothing, purified normal or TAO IgG was added for various time intervals. Medium was collected and stored until use at −80° C. Chemotaxis was examined using Boyden chambers to which NWNA-T lymphocytes were added as the cellular targets. 50 μl cell suspension (10^7 cells/ml) were placed in the upper compartments of 48-well micro-chemotaxis chambers separated from 32 μl of serum samples by 8 μm micropore nitrocellulose filters (Neuroprobe). These were incubated at 37° C. in 5% CO2 environment for 3 hr. Filters were fixed, stained with hematoxylin, dehydrated, mounted on glass slides and viewed by light microscopy. Lymphocyte migration was quantified by counting the total number of cells migrating beyond a fixed depth. This depth was set to routinely identify a baseline migration under control conditions of 10-15 cells per high power field. Five such fields were counted in duplicate for each sample and the means±SD were calculated and expressed as percentage values of baseline cell migration in control buffer alone (100%). For each set of experimental conditions, at least three separate determinations were performed. Differences between experimental groups were analyzed by the Student t test using absolute values obtained for lymphocyte migration and statistical difference was accepted at the 95% level of confidence.
To assess specificity for IL-16, experiments were conducted by incubating samples of culture media for 15 min with neutralizing concentrations of anti-IL-16 MAB (clone 14. 1, 10 μg/ml), which blocks the chemotactic activity of 50 ng/ml of rIL-16. Anti-RANTES MAB (5 μg/ml) having an ND50 of 200 ng/ml rRANTES was used to neutralize RANTES as described in Sciaky D., Brazer, W., Center, D. M., Cruikshank, W. W. and Smith, T. J.: Cultured human fibroblasts express constitutive IL-16 mRNA: Cytokine induction of active IL-16 protein synthesis through a caspase-3-dependent mechanism. J. Immunol. 164(7):3806-14, 2000).
Referring to FIGS. 3A-3C, serum concentrations of IL-16 are elevated in patients with active TAO. Moreover, both IL-16 and PGHS-2 protein can be detected in TAO orbital tissue. The concentration of IL-16 is determined in sera from either patients with Graves' disease or normal controls. The sera are subjected to an ELISA assay, which utilizes an anti-IL-16 specific antibody. IL-16 is detected by standard immunohistochemical techniques in thin sections harvested from affected orbital connective tissues from a patient with severe Graves' ophthalmopathy. In a separate measurement of IL-16 dependent T-cell migration, a panel of 11 different fibroblast strains from patients with Graves' disease and 5 from individuals without known thyroid disease were challenged with Graves' IgG (100 ng/ml), normal IgG (100 ng/ml) or IL-1β (10 ng/ml) for 24 hours and assessed for T cell migration activity and IL-16 production (Table II). Graves' IgG induced IL-16 dependent cell migration in 10 of the Graves' fibroblast strains which derived from orbit and skin from various anatomic regions. Included were strains from the pretibial skin as well as the abdominal wall and the neck. The latter two sites rarely manifest Graves' disease. A substantial fraction of Graves' IgG provoked T cell migration activity in most of these strains was resistant to neutralization with anti-IL-16. Similarly, chemoattractants produced by RA fibroblasts can be measured by T-cell migration. […]

IL-16 = IL-16 ELISA of medium from treated fibroblasts, GD donors; format: cell-based, human; conditions: GD, limit of detection 20 pg/ml
Excerpt: In addition to its therapeutic aspects, the present invention also relates to a diagnostic method for detecting the presence of antibody-activated fibroblasts in the patient. Applicants believe that several auto immune diseases or disorders are associated with antibody-activated fibroblasts. […] Altered levels of these chemoattractants can be detected in various biological samples in mammals, preferably humans. Levels of IL-16 and/or RANTES may be monitored in a patient, using standard techniques, as an indication of the deleterious aspects of the disease condition. Biological samples, including but not limited to serum, vitreous humor, aqueous humor, synovial fluid, and tissue, will be drawn from the patient using standard techniques. Particularly preferred are serum samples. The measurement of the IL-16 and RANTES levels may be monitored using any method possible to detect the levels of these proteins in biological samples. A preferred method of analysis is by ELISA as described in Sciaky, D. et al., J. Immunol. 164(7):3806-14, 2000. An ELISA specific for IL-16 can be used to assess the levels released by fibroblasts as described previously in Lim, K. G. et al., J. Immunol. 156(7): 2566-70, 1996. An ELISA specific for RANTES can be used according to the manufacturer's specification (BioSource Intl., Camarillo, Calif.).
The levels of IL-16 and RANTES were then assessed with specific ELISAs. The ELISA assay for IL-16 is performed essentially as discussed in Sciaky D., Brazer, W., Center, D. M., Cruikshank, W. W. and Smith, T. J.: Cultured human fibroblasts express constitutive IL-16 mRNA: Cytokine induction of active IL-16 protein synthesis through a caspase-3-dependent mechanism. J. Immunol. 164(7):3806-14, 2000). An ELISA (BioSource) for RANTES was performed according to the manufacturer's instructions.

## IL-1β: pro-inflammatory cytokine used to activate fibroblasts
[1]; strain 12, Orbit
  T Cell Migration (% control): 168 +/− 11 % control
  T Cell Migration +anti-IL-16: 143 +/− 9 % control
  T Cell Migration +anti-RANTES: 156 +/− 9 % control
[1]; strain 14, Orbit
  T Cell Migration (% control): 189 +/− 10 % control
  T Cell Migration +anti-IL-16: 154 +/− 8 % control
  T Cell Migration +anti-RANTES: 159 +/− 9 % control
[1]; strain 15, Extremity Skin
  T Cell Migration (% control): 197 ± 10 % control
  T Cell Migration +anti-IL-16: 153 ± 9 % control
  T Cell Migration +anti-RANTES: 172 ± 9 % control
[1]; strain 16, Extremity Skin
  T Cell Migration (% control): 201 ± 7 % control
  T Cell Migration +anti-IL-16: 155 ± 8 % control
  T Cell Migration +anti-RANTES: 173 ± 7 % control
IL-16; strain 1, Orbit
  IL-16: 71 ± 9 pg/mL
IL-16; strain 2, Orbit
  IL-16: 82 ± 9 pg/mL
IL-16; strain 3, Abdominal skin
  IL-16: 82 ± 9 pg/mL
IL-16; strain 4, Orbit
  IL-16: 194 ± 29 pg/mL
IL-16; strain 6, Neck skin
  IL-16: 116 ± 27 pg/mL
IL-16; strain 7, Pretibial skin
  IL-16: 194 ± 29 pg/mL
IL-16; strain 8, Pretibial skin
  IL-16: 79 ± 11 pg/mL
IL-16; strain 9, Orbit
  IL-16: 218 ± 33 pg/mL
IL-16; strain 10, Orbit
  IL-16: 246 ± 32 pg/mL
IL-16; strain 11, Orbit
  IL-16: 94 ± 12 pg/mL
